The text below walks through data of patent US7638320B2, “Bengamide derivatives, process for preparing them, and their use” (sanofi-aventis Deutschland GmbH, priority 2003, dated 2009).

In data set [1] the test system is Hep-G2 (ATCC No. HB-8065) tumor cell line. The experiment in a line: Cell proliferation test (intracellular ATP, CellTiterGlo) on Hep-G2. The data set is classed as cell-based. Conditions: read-out: Activity in a cell proliferation test, expressed as TC50 value, Hep-G2. As for the experimental part: (§1) A test which is based on determining the intracellular concentration of ATP is employed for detecting the inhibition of cell proliferation. It is possible to use known tumor cell lines such as Hep-G2 and Colo205. In this test, the ATP content of metabolically active cells serves, in a luciferase reaction, as a measure of the number of living cells.
(§2) The compounds of the formula (II)-(VI) were used in the test in a single dose of 0.3-40 μM and a dose dependency given as a TC50 value, with (IIA) and (IIB) in each case denoting a diastereomer of the compound of the formula (II): […]
(§3) The tumor cell lines Hep-G2 (ATCC No. HB-8065) and COLO 205 (ATCC No. CCL-222) were used for determining the cell proliferation. The cell lines were sown in cell culture medium at the rate of 1000 cells/well [Hep-G2] and, respectively, 3500 cells/well [Colo205] and incubated for 4 hours at 37° C. and 5% CO2.
Medium for Hep-G2: Dulbecco's modified Eagle's medium/Ham's F12 mix (Gibco); NEAA (10%; nonessential amino acids, Gibco), sodium pyruvate (1%, Gibco), L-glutamine (1%, Gibco), fetal calf serum (5%; PAA)].
(§4) After 4 hours, compounds (II), (III) and (IV) and bengamides E and F, dissolved in DMSO/cell culture medium, were added at various dilutions and the mixtures were incubated for 72 hours at 37° C. and 5% CO2. The intracellular content of ATP was determined using the test reagent CellTiterGlo (Promega).

Data set [2] relates to COLO 205 (ATCC No. CCL-222) tumor cell line. Briefly: Cell proliferation test (intracellular ATP, CellTiterGlo) on COLO 205. It is filed as cell-based. Conditions: read-out: Activity in a cell proliferation test, expressed as TC50 value, Colo 205. As for the experimental part:
as §1, §2, §3
Medium for COLO 205: RPMI 1640 (Gibco), L-glutamine (1%, Gibco), HEPES (1%, Gibco), fetal calf serum (10%, PAA).
as §4
In general terms: ATP-based viability assays read luminescence as a measure of living cells.

The test system of data set [3] is eukaryotic cells, nematodes and bacteria. Conditions: Adamczewski et al., J. Org. Chem. 1986; cited from earlier work.
A further data set deals with cell proliferation. Conditions: stops cell division at the G1/S restriction point and in the G2/M phase; cited from earlier work.
[4] abbreviates: Colo 205, 72 hours incubation, ATP content, tested at 0.3-40 μM.

The structures appear in SMILES notation. Like-named read-outs stand apart in the source and are kept apart here. Where only a bound is given, the exact number is not on record here.

Take `CCC(C)/C=C/C(O)C(O)C(O)[C@@H](OC)C(=O)N[C@H]1CCCCN(C)C1=O` (stereo partly shown) [(III)]: the TC50 (50% inhibition of cell proliferation) in data set [1] (Homo sapiens, HepG2, 72 h) is 9 µM. Besides, the CC50 in data set [2] (Homo sapiens, COLO 205, 72 h) is 15 µM.
With `CCC(C)/C=C/C(O)C(O)C(O)[C@@H](OC)C(=O)N[C@H]1CCC(O)CNC1=O` (stereo partly shown) [(IV)], in data set [1] (Homo sapiens, HepG2, 72 h), the TC50 (50% inhibition of cell proliferation) is greater than 40 µM. The CC50 in data set [2] (setting [4]) worked out at 42 µM.
On to `CCCCCCCCCCCCCC(=O)O[C@H]1CC[C@H](NC(=O)[C@H](OC)[C@H](O)[C@@H](O)[C@H](O)/C=C/C(C)C)C(=O)NC1` [Bengamide A], for which the “Biotoxicity to eukaryotic cells, nematodes and bacteria” value in data set [3] was “biotoxic”.
`CCCCCCCCCCCCCC(=O)O[C@H]1CC[C@H](NC(=O)[C@H](OC)[C@H](O)[C@@H](O)[C@H](O)/C=C/C(C)C)C(=O)N(C)C1` [Bengamide B]: in data set [3], the “Biotoxicity to eukaryotic cells, nematodes and bacteria” value was “biotoxic”.
Turning to `CO[C@@H](C(=O)N[C@H]1CCCCNC1=O)[C@H](O)[C@@H](O)[C@H](O)/C=C/C(C)C` [Bengamide E], the TC50 (50% inhibition of cell proliferation) in data set [1] (Homo sapiens, HepG2, Hep-G2, 72 hours incubation, ATP content, tested at 0.3-40 μM) is 36 µM. In addition, in the data set on cell proliferation, the “Inhibition of cell proliferation” value is “inhibits cell proliferation”. Also, the CC50 in data set [2] (setting [4]) is recorded as 46 µM.
For the compound `CO[C@@H](C(=O)N[C@H]1CCCCN(C)C1=O)[C@H](O)[C@@H](O)[C@H](O)/C=C/C(C)C` [Bengamide F], the TC50 (50% inhibition of cell proliferation) in data set [1] (Hep-G2, 72 hours incubation, ATP content, tested at 0.3-40 μM) was found to be 27 µM. The CC50 in data set [2] (setting [4]) is 33 µM.
Take `CCC(C)/C=C/C(O)C(O)C(O)[C@@H](OC)C(=O)N[C@H]1CCCCNC1=O` (stereo partly shown) [Compound (II)]: the TC50 (50% inhibition of cell proliferation) in data set [1] (Homo sapiens, HepG2, 72 h) was found to be 16 µM. For the same compound, the CC50 in data set [2] (Homo sapiens, COLO 205, 72 h) was 27 µM.
